Results published in US6897237B2, “MMP-12 inhibitors” (Shionogi & Co. Ltd., priority 2000, dated 2005).

Assays:
[1] = biological target: T1, MMP-9 (Homo sapiens, UniProt P14780); assay: Assay for inhibitory activities on MMPs (fluorogenic peptide substrate): MMP-9; type: biochemical; conditions: substrate MOCAc-Pro-Leu-Gly-Leu-A2Pr(DNP)-Ala-Arg-NH2
T1 construct: endogenous in cells; host or cells: HT1080 human fibrosarcoma cells, TPA-stimulated; purified in house from conditioned medium
Source text: MMP-9 was isolated and purified by using a combination of procedures described in previous reports as follows. Yasunori Okada, Yukio Gonoji, Katsumi Naka, Katsuro Tomita, Isao Nakanishi, Kazushi Iwata, Kyoko Yamashita, and Taro Hayakawa: Matrix metalloproteinase 9 (92-kDa gelatinase/type IV collagenase) from HT1080 human fibrosarcoma cells. Purification and activation of the precursor and enzymic properties. J. Biol. Chem., 267 (1.992) 21712-21719. Yasunori Okada, Tatsuhisa Morodomi, Jan J, Enghild, Ko Suzuki, Atsushi Yasui, Isao Nakanishi, Guy Salvesen and Hideaki Nagase: Matrix metalloproteinase 2 from human rheumatoid synovial fibroblasts. Purification and activation of the precursor and enzymic properties. Eur. J. Biochem. 194 (1990) 721-730. Robin V Ward, Rosalind M Hembry, John J Reynolds and Gillian Murphy: The purification of tissue inhibitor of metalloproteinase-2 from its 72 kDa progelatinase complex. Biochem. J. 278 (1991) 179-187.
Briefly, human fibrosarcoma ATCC HT1080 cell line was cultured to confluent in Dulbecco's Modified Medium (DMEM) containing 10% fetal-calf serum at 37° C. for 48 hours. Subsequently, the medium of confluent culture was changed to serum-free DMEM medium. To obtain MMP-9, Phorbol-12-myristate-13-acetate (TPA) must be added to this serum-free DMEM medium at a concentration of 50 ng/ml. The TPA treated medium was centrifuged at 3000 rpm for 15 min and the supernatant was concentrated to 450 ml by a Toyo-Roshi UP-20 apparatus with an ultrafiltration membrane. Then, proMMP-9 in this concentrated solution was purified by using columns of Gelatin-Sepharose and Concanavalin A-Sepharose. The pool containing proMMP-9 was dialyzed, concentrated (Toyo-Roshi UP-20) and applied to columns of Sephacryl S-200 and Green A matrix for the separation from TIMPs. The obtained proMMP-9 fraction was activated by TPCK-Trypsin (final conc. […] reaction mix.).
(§1) The enzymatic activity on MMPs was analyzed by the method described in “C. Graham Knight, Frances Willenbrock and Gillian Murphy: A novel coumarin-labelled peptide for sensitive continuous assays of the matrix metalloproteinases: FEBS LETT., 296, (1992), 263-266”. The substrate: MOCAc-Pro-Leu-Gly-Leu-A2Pr(DNP)-Ala-Arg-NH2 was purchased from Peptide Institute, Inc., Osaka, Japan. The measurement of the inhibitory activities (IC50) was carried out by the following four methods;
(§2) (A) Reaction with substrate, enzyme (MMPs) and inhibitor
(§3) (B) Reaction with substrate and inhibitor, without enzyme
(§4) (C) Reaction with substrate and enzyme (MMPs), without inhibitor
(§5) (D) Reaction with substrate only
(§6) IC50 values were calculated by using the following formula and each fluorescence values of above four methods (A to D).
(§7) % inhibition={1−(A−B)/(C−D)}×100
(§8) IC50 means the concentration required to inhibit 50% of the enzyme activity.

[2] = biological target: T2, MMP-2 (Homo sapiens, UniProt P08253); assay: Assay for inhibitory activities on MMPs (fluorogenic peptide substrate): MMP-2; type: biochemical; conditions: substrate MOCAc-Pro-Leu-Gly-Leu-A2Pr(DNP)-Ala-Arg-NH2
T2 construct: purchased Calbiochem-Novabiochem International, Inc
T2 sequence (P08253 110-660): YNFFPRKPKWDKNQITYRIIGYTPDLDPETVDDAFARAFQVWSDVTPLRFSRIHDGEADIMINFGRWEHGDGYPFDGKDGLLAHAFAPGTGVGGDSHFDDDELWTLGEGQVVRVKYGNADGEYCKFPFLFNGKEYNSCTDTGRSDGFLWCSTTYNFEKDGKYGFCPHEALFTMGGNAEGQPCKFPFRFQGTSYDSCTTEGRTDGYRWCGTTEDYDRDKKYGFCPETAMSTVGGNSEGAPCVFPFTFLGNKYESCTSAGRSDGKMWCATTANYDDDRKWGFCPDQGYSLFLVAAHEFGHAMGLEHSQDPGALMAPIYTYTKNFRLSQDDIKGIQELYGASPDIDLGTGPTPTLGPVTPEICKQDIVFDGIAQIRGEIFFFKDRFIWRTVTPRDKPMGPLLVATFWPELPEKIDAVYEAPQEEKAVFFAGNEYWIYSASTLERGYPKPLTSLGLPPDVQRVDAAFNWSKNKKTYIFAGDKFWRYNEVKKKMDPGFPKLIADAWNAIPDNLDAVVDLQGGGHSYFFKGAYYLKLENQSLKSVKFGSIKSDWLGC
Experimental: MMP-2 was purchased from Calbiochem-Novabiochem International, Inc.
as §1, §2, §3, §4, §5, §6, §7, §8

T1 sequence (P14780 107-707 limits assumed): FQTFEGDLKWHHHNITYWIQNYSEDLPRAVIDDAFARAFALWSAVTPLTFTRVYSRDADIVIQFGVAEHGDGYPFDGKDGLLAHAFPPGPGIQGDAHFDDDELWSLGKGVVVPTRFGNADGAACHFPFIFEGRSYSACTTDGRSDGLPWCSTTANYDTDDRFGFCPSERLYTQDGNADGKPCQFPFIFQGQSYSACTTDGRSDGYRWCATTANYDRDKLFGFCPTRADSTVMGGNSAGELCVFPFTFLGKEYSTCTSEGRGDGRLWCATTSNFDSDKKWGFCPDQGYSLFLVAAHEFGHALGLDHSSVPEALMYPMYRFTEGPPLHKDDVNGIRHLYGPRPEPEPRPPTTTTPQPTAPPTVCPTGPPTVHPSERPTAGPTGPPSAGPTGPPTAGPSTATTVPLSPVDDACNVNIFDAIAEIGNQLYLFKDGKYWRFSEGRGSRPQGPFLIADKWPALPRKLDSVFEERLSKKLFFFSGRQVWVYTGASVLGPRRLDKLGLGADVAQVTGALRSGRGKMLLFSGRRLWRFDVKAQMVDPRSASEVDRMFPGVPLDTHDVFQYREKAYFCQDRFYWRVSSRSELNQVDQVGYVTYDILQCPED

Compound: C[C@@H](NS(=O)(=O)c1ccc(C#Cc2ccc3ccccc3c2)s1)C(=O)O [Compound B-6]
- IC50 [1]: 840 nM
- IC50 [2]: 350 nM
